One assay has as its system SMOV2 (A). The experiment in a line: SRB proliferation assay, SMOV2 (PPM1D amplified). It is filed as cell-based. The following applies: Homo sapiens, SMOV2, PP1MD amplified cell line (A). From the text:
(§1) All cell lines were obtained from ATCC except KPL1 which was obtained from Leibniz Institute DSMZ-German Collection of Microorganisms and Cell Cultures, and SMOV2 which was obtained from Dr. Hiroaki Itamochi (Tottori University School of Medicine, Yonago, Japan; see also: ‘Establishment and characterization of human ovarian clear cell adenocarcinoma cell line (SMOV-2), and its cytotoxity by anticancer agents’, Yonamine K at al., Hum Cell., 1999, 12(3), 139-48; and ‘PPM1D Is a Potential Therapeutic Target in Ovarian Clear Cell Carcinoma’, David S. P. Tan et al., Clin Cancer Res, 2009, 15, 2269).
(§2) Representative compounds were assessed in a sulforhodamine B (SRB) proliferation assay in the cell lines shown in the Tables below, according to the following general procedure:
(§3) Cells were seeded in a 96 well plate at a number optimized for each cell line as known in the art; for example as described in Viachai et al, Nature Protocols, 2006, 1 1112-1116. Two fold dilutions of the compounds to be tested were made in culture medium so that, when diluted 5×, the final concentration in the wells was from 50 μM to 0.000191 μM (19 concentrations). A day after seeding the cells in 96 well plates, 25 μl of the compound diluted in the culture medium was added to 100 μl of the cells and incubated at 37° C. and 5% CO2 for 3 or 5 more days as required. After this time, cells were fixed by adding 10% ice cold TCA (in H2O) to 3% final concentration in the wells and by incubating at 4° C. for at least 2 h. Plates were washed 4 times in H2O and allowed to dry in the air. Added 100 μl of 0.057% SRB solution to the dried plates and incubated at room temperature for at least 30 min. Removed SRB solution from the plates and washed four times with 1% acetic acid. Plates were left overnight to dry in the air followed by addition of 100 μl of 10 mM Tris pH 10.5 to each well of the dried plates and incubation on a shaker for 5 min to solubilize the SRB. Optical density was measured at wave length of 490 nm using a plate reader and analysis performed to measure the GI50 using GraphPad PRISM.
On the technique in general: The SRB assay estimates cell density from bound dye.

The next assay relates to TOV21G (NA). The experiment in a line: SRB proliferation assay, TOV21G (non-amplified control). Particulars: 5-day incubation, control not amplified (NA). It is filed as cell-based.
From the text: as §1, §2, §3

The mark [1] stands for this setting: 72 h, 3-day incubation, read-out: GI50 3-day SMOV2 (A) SRB.
The mark [2] stands for this setting: 120 h, 5-day incubation, read-out: GI50 5-day SMOV2 (A) SRB.

The term GI50 denotes the concentration that inhibits growth by half.

Where two headings read alike, the source gives them in different places.

For `CNCc1cc(F)ccc1-c1nc(-c2ccc3[nH]c(=O)oc3c2)cs1` [Compound 13, 6-(2-(4-fluoro-2-((methylamino)methyl)phenyl)thiazol-4-yl)benzo[d]oxazol-2(3H)-one], the GI50 amounted to 0.032 µM in the assay on SMOV2 (A) (setting [1]); 0.006 µM with SMOV2 (A) (setting [2]); 1.6 µM in the assay with TOV21G (NA) (Homo sapiens, 120 h).

Regarding `NCCOCc1cc(F)ccc1-c1nc(-c2ccc3[nH]c(=O)oc3c2)cs1` [Compound 19, 6-(2-(2-((2-aminoethoxy)methyl)-4-fluorophenyl)thiazol-4-yl)benzo[d]oxazol-2(3H)-one], the GI50 in the assay with SMOV2 (A) (setting [1]) amounted to 0.0014 µM; in the assay on SMOV2 (A) (setting [2]), 0.005 µM; in the assay on TOV21G (NA), 1.7 µM; with TOV21G (NA) (Homo sapiens, 120 h) it was 1.2 µM.

`Cc1cc(F)cc(C)c1-c1nc(-c2ccc3[nH]c(=O)oc3c2)cs1` [Compound 25, 6-(2-(4-fluoro-2,6-dimethylphenyl)thiazol-4-yl)benzo[d]oxazol-2(3H)-one]: in the assay on SMOV2 (A) (setting [1]), the GI50 turned out to be 0.5 µM.

Regarding `CN(C)Cc1cc(F)ccc1-c1nc(-c2ccc3[nH]c(=O)oc3c2)cs1` [Compound 14, 6-(2-(2-((dimethylamino)methyl)-4-fluorophenyl)thiazol-4-yl)benzo[d]oxazol-2(3H)-one], the GI50 in the assay with SMOV2 (A) (setting [1]) came to 0.01 µM; in the assay with SMOV2 (A) (setting [2]), 0.002 µM; in the assay with TOV21G (NA) (Homo sapiens, 120 h), 1.6 µM.

With `O=c1[nH]c2ccc(-c3csc(-c4ccc(F)cc4CO)n3)cc2o1` [Compound 8, 6-(2-(4-fluoro-2-(hydroxymethyl)phenyl)thiazol-4-yl)benzo[d]oxazol-2(3H)-one], the GI50 in the assay with SMOV2 (A) (setting [1]) is 0.023 µM; with SMOV2 (A) (setting [2]), 0.0001 µM; with TOV21G (NA) (Homo sapiens, 120 h), 9.2 µM.

Take `O=c1[nH]c2ccc(-c3csc(-c4ccc(F)cc4CN4CCOCC4)n3)cc2o1` [Compound 15, 6-(2-(4-fluoro-2-(morpholinomethyl)phenyl)thiazol-4-yl)benzo[d]oxazol-2(3H)-one]: in the assay on SMOV2 (A) (setting [1]), the GI50 stood at 0.52 µM.

`Cc1c(-c2nc(-c3ccc4[nH]c(=O)oc4c3)cs2)ccc(F)c1F` [Compound 27, 6-(2-(3,4-difluoro-2-methylphenyl)thiazol-4-yl)benzo[d]oxazol-2(3H)-one]: the GI50 was 0.0012 µM in the assay on SMOV2 (A) (setting [1]); 0.0002 µM with SMOV2 (A) (setting [2]); over 10 µM with TOV21G (NA) (Homo sapiens, 120 h).

Regarding `Cc1cc(F)ccc1-c1nc(-c2ccc3[nH]c(=O)n(CCN(C)C)c3c2)cs1` [Compound 21, 1-(2-(dimethylamino)ethyl)-6-(2-(4-fluoro-2-methylphenyl)thiazol-4-yl)-1H-benzo[d]imidazol-2(3H)-one], the GI50 was 0.008 µM in the assay with SMOV2 (A) (setting [1]); 0.0001 µM in the assay on SMOV2 (A) (setting [2]); 7.2 µM in the assay with TOV21G (NA) (Homo sapiens, 120 h).

`O=c1[nH]c2ccc(-c3cccc(-c4ccc(F)cc4)n3)cc2o1` [Compound 30, 6-(6-(4-fluorophenyl)pyridin-2-yl)benzo[d]oxazol-2(3H)-one]: the GI50 with SMOV2 (A) (setting [1]) amounted to 0.28 µM; in the assay on SMOV2 (A) (setting [2]), 0.035 µM; in the assay with TOV21G (NA) (Homo sapiens, 120 h), 2.7 µM.

Take `Cc1cc(-c2nc(-c3ccc4[nH]c(=O)oc4c3)cs2)ccc1F` [Compound 23, 6-(2-(4-fluoro-3-methylphenyl)thiazol-4-yl)benzo[d]oxazol-2(3H)-one]: the GI50 in the assay on SMOV2 (A) (setting [1]) worked out at 0.25 µM.

In the case of `O=C1Cc2cc(-c3csc(-c4ccc(F)cc4)n3)c(Cl)cc2N1` [Compound 28, 6-chloro-5-(2-(4-fluorophenyl)thiazol-4-yl)indolin-2-one], in the assay on SMOV2 (A) (setting [1]), the GI50 was 0.093 µM.

Regarding `O=c1[nH]c2ccc(-c3csc(-c4ccc(F)cc4C4CC4)n3)cc2o1` [Compound 6, 6-(2-(2-cyclopropyl-4-fluorophenyl)thiazol-4-yl)benzo[d]oxazol-2(3H)-one], the GI50 in the assay on SMOV2 (A) (setting [1]) came out at 0.2 µM.

As for `Cc1cc(F)ccc1-c1nc(-c2ccc3[nH]c(=O)[nH]c3c2)cs1` [Compound 4, 5-(2-(4-fluoro-2-methylphenyl)thiazol-4-yl)-1H-benzo[d]imidazol-2(3H)-one], the GI50 is 0.0002 µM with SMOV2 (A) (setting [1]); 0.0001 µM in the assay on SMOV2 (A) (setting [2]); over 10 µM in the assay with TOV21G (NA) (Homo sapiens, 120 h).

Consider `Cc1c(F)ccc(-c2nc(-c3ccc4[nH]c(=O)oc4c3)cs2)c1F` [Compound 26, 6-(2-(2,4-difluoro-3-methylphenyl)thiazol-4-yl)benzo[d]oxazol-2(3H)-one], for which the GI50 with SMOV2 (A) (setting [1]) is over 10 µM.

With `C=CCc1cc(F)ccc1-c1nc(-c2ccc3[nH]c(=O)oc3c2)cs1` [Compound 7, 6-(2-(2-allyl-4-fluorophenyl)thiazol-4-yl)benzo[d]oxazol-2(3H)-one], the GI50 in the assay on SMOV2 (A) (setting [1]) is 0.077 µM.

For `Cc1cc(F)ccc1-c1nc(-c2ccc3[nH]c(=O)oc3c2)cs1` [Compound 2, 6-(2-(4-fluoro-2-methylphenyl)thiazol-4-yl)benzo[d]oxazol-2(3H)-one], the GI50 in the assay with SMOV2 (A) (setting [1]) was 0.0016 µM; in the assay on SMOV2 (A) (setting [2]), 0.0005 µM; with TOV21G (NA) (Homo sapiens, 120 h) it was over 10 µM.

For `CCc1cc(F)ccc1-c1nc(-c2ccc3[nH]c(=O)oc3c2)cs1` [Compound 5, 6-(2-(2-ethyl-4-fluorophenyl)thiazol-4-yl)benzo[d]oxazol-2(3H)-one], the GI50 in the assay on SMOV2 (A) (setting [1]) was 0.013 µM; with SMOV2 (A) (setting [2]) it was 0.0097 µM; with TOV21G (NA) (Homo sapiens, 120 h), over 10 µM.

Take `O=c1[nH]c2ccc(-c3csc(-c4ccc(F)cc4F)n3)cc2o1` [Compound 11, 6-(2-(2,4-difluorophenyl)thiazol-4-yl)benzo[d]oxazol-2(3H)-one]: the GI50 is 0.007 µM in the assay with SMOV2 (A) (setting [1]); 0.00075 µM in the assay on SMOV2 (A) (setting [2]); over 10 µM in the assay with TOV21G (NA) (Homo sapiens, 120 h).

As to `O=c1[nH]c2ccc(-c3csc(-c4ccc(F)cc4CCO)n3)cc2o1` [Compound 9, 6-(2-(4-fluoro-2-(2-hydroxyethyl)phenyl)thiazol-4-yl)benzo[d]oxazol-2(3H)-one], the GI50 in the assay on SMOV2 (A) (setting [1]) is 0.007 µM; with SMOV2 (A) (setting [2]) it was 0.0006 µM; with TOV21G (NA) (Homo sapiens, 120 h) it was over 10 µM.

Consider `Cc1cc(F)ccc1-c1cccc(-c2ccc3[nH]c(=O)oc3c2)n1` [Compound 31, 6-(6-(4-fluoro-2-methylphenyl)pyridin-2-yl)benzo[d]oxazol-2(3H)-one], for which the GI50 with SMOV2 (A) (setting [1]) is over 10 µM.

Consider `CCc1cc(F)ccc1-c1nc(-c2ccc3[nH]c(=O)[nH]c3c2)cs1` [Compound 22, 5-(2-(2-ethyl-4-fluorophenyl)thiazol-4-yl)-1H-benzo[d]imidazol-2(3H)-one], for which the GI50 in the assay with SMOV2 (A) (setting [1]) was found to be 0.00038 µM; in the assay on SMOV2 (A) (setting [2]), 0.0002 µM; in the assay on TOV21G (NA) (Homo sapiens, 120 h) it was 0.66 µM.

Regarding `CN(C)CCc1cc(F)ccc1-c1nc(-c2ccc3[nH]c(=O)oc3c2)cs1` [Compound 16, 6-(2-(2-(2-(dimethylamino)ethyl)-4-fluorophenyl)thiazol-4-yl)benzo[d]oxazol-2(3H)-one], the GI50 in the assay on SMOV2 (A) (setting [1]) is 0.04 µM; in the assay with SMOV2 (A) (setting [2]), 0.006 µM; in the assay on TOV21G (NA) (Homo sapiens, 120 h), 9.2 µM.

`O=c1[nH]c2ccc(-c3csc(-c4ccc(F)cc4)n3)cc2o1` [Compound 1, 6-(2-(4-fluorophenyl)thiazol-4-yl)benzo[d]oxazol-2(3H)-one]: the GI50 was 0.009 µM in the assay with SMOV2 (A) (setting [1]); 0.0011 µM with SMOV2 (A) (setting [2]); over 10 µM with TOV21G (NA) (Homo sapiens, 120 h).

For `O=c1[nH]c2ccc(-c3csc(-c4ccc(F)c(F)c4)n3)cc2o1` [Compound 24, 6-(2-(3,4-difluorophenyl)thiazol-4-yl)benzo[d]oxazol-2(3H)-one], in the assay with SMOV2 (A) (setting [1]), the GI50 is 0.29 µM.

Regarding `O=c1[nH]c2ccc(-c3csc(-c4ccc(F)cc4COCCN4CCCC4)n3)cc2o1` [Compound 20, 6-(2-(4-fluoro-2-((2-(pyrrolidin-1-yl)ethoxy)methyl)phenyl)thiazol-4-yl)benzo[d]oxazol-2(3H)-one], the concentration for 50% growth inhibition (GI50) amounted to 0.013 µM in the assay on SMOV2 (A) (setting [1]); 0.011 µM with SMOV2 (A) (setting [2]); 1.5 µM in the assay with TOV21G (NA) (Homo sapiens, 120 h).

For the compound `O=c1[nH]c2ccc(-c3csc(-c4ccc(F)cc4COCc4ccccc4)n3)cc2o1` [Compound 10, 6-(2-(2-((benzyloxy)methyl)-4-fluorophenyl)thiazol-4-yl)benzo[d]oxazol-2(3H)-one], the GI50 with SMOV2 (A) (setting [1]) came to 0.3 µM.

For the compound `Cc1cc(F)ccc1-c1nc(-c2ccc3c(c2)CC(=O)N3)cs1` [Compound 3, 5-(2-(4-fluoro-2-methylphenyl)thiazol-4-yl)indolin-2-one], the GI50 in the assay with SMOV2 (A) (setting [1]) is 0.0012 µM; with SMOV2 (A) (setting [2]), 0.0005 µM; with TOV21G (NA) (Homo sapiens, 120 h), over 10 µM.

Consider `O=C1Cc2cc(-c3csc(-c4ccc(F)cc4F)n3)c(Cl)cc2N1` [Compound 29, 6-chloro-5-(2-(2,4-difluorophenyl)thiazol-4-yl)indolin-2-one], for which the GI50 in the assay with SMOV2 (A) (setting [1]) came to 1.9 µM.

As to `O=c1[nH]c2ccc(-c3csc(-c4ccc(F)cc4COCCO)n3)cc2o1` [Compound 18, 6-(2-(4-fluoro-2-((2-hydroxyethoxy)methyl)phenyl)thiazol-4-yl)benzo[d]oxazol-2(3H)-one], the GI50 with SMOV2 (A) (setting [1]) was found to be 0.0017 µM; with SMOV2 (A) (setting [2]), 0.0009 µM; with TOV21G (NA) (Homo sapiens, 120 h) it was 9.5 µM.

The record behind these values is patent publication US9550764B2, “Fused heterocyclic compounds and their use” (The Institute of Cancer Research: Royal Cancer Hospital, priority 2012, dated 2017).
